# Measured values from patent US20080249130A1, “Gut microsomal triglyceride transport protein inhibitors” (Sirtris Pharmaceuticals, Inc., priority 2007, published 2008).
# Where two headings read alike, the source gives them in different places.
# Tested on: secretion of ApoB by HepG2 cells
# Assay: ApoB secretion inhibition assay in HepG2 cells (ApoB ELISA)
# Assay type: cell-based, human
# Experimental: The ability of the compounds of the present invention to inhibit the secretion of ApoB can be determined using the following cell-based assay, which measures the secretion of ApoB by HepG2 cells. ApoB has two possible metabolic fates: entrance into the lipoprotein assembly pathway within the lumen of the endoplasmic reticulum (ER), or degradation in the cytoplasm by the ubiquitin-dependent proteasome. The destiny of ApoB is determined by the relative availability of individual lipids, which is controlled by MTP (Davis, Biochim. Biophys. Acta, 1999, 1440, 1-31).
# HepG2 cells (ATCC, HB-8065) are seeded in 96-well plates in DMEM with 10% FBS+pen/strep at a density of 1×10^5 cells/well (100 μl /well). Twenty-four hours after seeding, the plate is aspirated and the media changed to DMEM with 1% BSA and pen/strep, and the cells are serum-starved for 24 hours. After 24 hour serum-starvation, the plate is aspirated again and the cells are then treated for 24 hours with or without compound in DMEM with 1% BSA, 0.3 mM OA (OA complexed to BSA at a 2:1 ratio) and pen/strep. The final concentration of DMSO in the assay (from compound and control) is 0.1%. After 24 hour treatment, conditioned media is collected in an empty 96-well plate.
# Cellular viability is measured using the cell permeable dye, AlamarBlue™. This dye undergoes electron reduction in viable cells but not dead cells. The reduced dye product gives a fluorescent signal which can be monitored with a fluorescence plate reader (excitation 545 nm and emission 575 nm). The amount of fluorescence generated in a given well is proportional to the number of viable cells. After collection, the 96-well plate is re-fed with 100 μl media (DMEM with 10% FBS) and 10 μl Alamar Blue™ per well, incubated for 2 hours and then read in a fluorescence plate reader.
# ApoB secretion from HepG2 cells is quantitated by testing the conditioned media at […] using an ApoB ELISA kit (ALerCHEK) according to the manufacturer's instructions. The ELISA assay for ApoB is performed as follows: a polyclonal antibody against human ApoB (Chemicon) is diluted 1:1000 in carbonate-bicarbonate buffer and 100 μl are added to each well of a 96-well plate (NUNC). After 5 hours incubation at room temperature, the antibody solution is removed and wells are washed four times with PBS/0.05% TweenD 20 (Cayman Chemical Co.). Non-specific sites on the plastic plate are blocked by incubating wells for 1 to 1.5 hours in a solution of 0.5% BSA and 0.1% TweenD 20 made in PBS. One hundred microliters of a 1:20 dilution of growth medium from the HepG2 cells (made in 0.004% TweenD 20/1% BSA in PBS) is added to each well and incubated for 3 hours at room temperature. Wells are aspirated and washed four times (0.05% TweenD 20 in PBS) prior to adding 100 μl of a 1:1000 dilution (5 μg/ml) of the secondary antibody, mouse anti-human ApoB (Chemicon). After 2 hours incubation at room temperature, this solution is aspirated and the wells are again washed 4 times as above. One hundred microliters of peroxidase-conjugated affinity purified goat anti-mouse IgG (H+L) (Jackson ImmunoResearch Laboratories) (1:10,000 dilution in PBS/1% BSA/0.1% TweenD 20) is then added to each well and incubated for 1 hour at room temperature. After aspirating, the wells are washed 4 times as above and 50 μl of 1-step Ultra TMB ELISA reagent (Pierce) is added to each well and incubated for 5 minutes. The reaction is stopped by the addition of 50 μl of 2 NH2SO4 and absorbance of each well is read at 450 nm.
# [1] = Homo sapiens, HepG2, Table 6, assay of Example 2, read-out: IC50 ApoB Assay
# [2] = Table 6, assay of Example 2, read-out: IC50 ApoB Assay
IC50 [1] [nM],IC50 [2] [nM],SMILES,"IC50 (Homo sapiens, Table 1, HepG2 cells, read-out: gMTP IC50 ApoB Secretion Assay (Example 2)) [nM]"
13.8,–,Cc1cccc(C(=O)NCC23CCC(C(=O)N[C@H](C(=O)N(C)C(C)C)c4ccccc4)(CC2)CC3)c1-c1ccc(C(C)(C)C)cc1 [Compound 70],–
14.2,–,Cc1cccc(C(=O)NCC23CCC(C(=O)N[C@H](C(=O)NCC(C)C)c4ccccc4)(CC2)CC3)c1-c1ccc(C(C)(C)C)cc1 [Compound 71],–
21.8,–,Cc1cccc(C(=O)NCC23CCC(C(=O)N[C@H](C(=O)N(C)CC(C)C)c4ccccc4)(CC2)CC3)c1-c1ccc(C(C)(C)C)cc1 [Compound 72],–
19.8,–,CCCCN(C)C(=O)[C@@H](NC(=O)C12CCC(CNC(=O)c3cccc(C)c3-c3ccc(C(C)(C)C)cc3)(CC1)CC2)c1ccccc1 [Compound 74],–
2.8,–,COc1cccc(C(=O)Nc2ccc3nc(C(=O)N[C@H](C(=O)N(C)Cc4ccc(F)cc4)c4ccccc4)sc3c2)c1-c1ccc(C(C)C)cc1 [Compound 76],–
1.6,–,COc1cccc(C(=O)Nc2ccc3nc(C(=O)N[C@H](C(=O)N(C)Cc4ccc(F)cc4)c4ccccc4)sc3c2)c1-c1ccc(C(F)(F)F)cc1 [Compound 80],–
115,–,Cc1cccc(C(=O)Nc2nc(-c3ccc(C(=O)N[C@H](C(=O)N(C)CC(C)C)c4ccccc4)cc3)cs2)c1-c1ccc(C(C)C)cc1 [Compound 90],–
11,–,Cc1cccc(C(=O)NCC23CCC(C(=O)NC(C(=O)N4CCCC4)c4ccccc4)(CC2)CC3)c1-c1ccc(C(C)C)cc1 (stereo not drawn) [Compound 96],–
11.7,–,CCCCN(C)C(=O)[C@@H](NC(=O)C12CCC(NC(=O)c3ccccc3-c3ccc(C(C)(C)C)cc3)(CC1)CC2)c1ccccc1 [Compound 101],–
34.1,–,CC(C)CN(C)C(=O)[C@@H](NC(=O)C12CCC(NC(=O)c3ccccc3-c3ccc(C(C)(C)C)cc3)(CC1)CC2)c1ccccc1 [Compound 102],–
26.1,–,CCCCN(C)C(=O)[C@@H](NC(=O)C12CCC(NC(=O)c3ccccc3-c3ccc(C(C)C)cc3)(CC1)CC2)c1ccccc1 [Compound 103],–
3.5,–,CC(C)c1ccc(-c2ccccc2C(=O)NC23CCC(C(=O)N[C@H](C(=O)N4CCCC4)c4ccccc4)(CC2)CC3)cc1 [Compound 104],–
13.4,–,CC(C)c1ccc(-c2ccccc2C(=O)NC23CCC(C(=O)N[C@H](C(=O)N(C)Cc4ccc(F)cc4)c4ccccc4)(CC2)CC3)cc1 [Compound 105],–
40.2,–,CC(C)CN(C)C(=O)[C@@H](NC(=O)C12CCC(NC(=O)c3ccccc3-c3ccc(C(C)C)cc3)(CC1)CC2)c1ccccc1 [Compound 106],–
1.7,1.5,Cc1cccc(C(=O)NC23CCC(C(=O)N[C@H](C(=O)N4CCCC4)c4ccccc4)(CC2)CC3)c1-c1ccc(C(C)(C)C)cc1 [Compound 107],–
1.2,–,Cc1cccc(C(=O)NC23CCC(C(=O)N[C@H](C(=O)N(C)Cc4ccc(F)cc4)c4ccccc4)(CC2)CC3)c1-c1ccc(C(C)(C)C)cc1 [Compound 108],–
8.2,–,COc1cccc(C(=O)NC23CCC(C(=O)N[C@H](C(=O)N4CCCC4)c4ccccc4)(CC2)CC3)c1-c1ccc(C(C)(C)C)cc1 [Compound 109],–
14.6,–,COc1cccc(C(=O)NC23CCC(C(=O)N[C@H](C(=O)N(C)Cc4ccc(F)cc4)c4ccccc4)(CC2)CC3)c1-c1ccc(C(C)(C)C)cc1 [Compound 110],–
110,–,COc1cccc(C(=O)NC23CCC(C(=O)N[C@H](C(=O)N(C)Cc4ccc(F)cc4)c4ccccc4)(CC2)CC3)c1-c1ccc(C(C)C)cc1 [Compound 111],–
4.4,–,Cc1cccc(C(=O)NC23CCC(C(=O)N[C@H](C(=O)N4CCCC4)c4ccccc4)(CC2)CC3)c1-c1ccc(C(C)C)cc1 [Compound 113],–
3.5,–,Cc1cccc(C(=O)NC23CCC(C(=O)N[C@H](C(=O)N(C)Cc4ccc(F)cc4)c4ccccc4)(CC2)CC3)c1-c1ccc(C(C)C)cc1 [Compound 114],–
99.3,–,CCCCN(C)C(=O)[C@@H](NC(=O)C12CCC(NC(=O)c3cccc(OC)c3-c3ccc(C(C)C)cc3)(CC1)CC2)c1ccccc1 [Compound 115],–
247,–,COc1cccc(C(=O)NC23CCC(C(=O)N[C@H](C(=O)N(C)CC(C)C)c4ccccc4)(CC2)CC3)c1-c1ccc(C(C)C)cc1 [Compound 116],–

# More lines, now with the values behind:
SMILES,IC50 [1] [nM],IC50 [2] [nM],"IC50 (Homo sapiens, Table 1, HepG2 cells, read-out: gMTP IC50 ApoB Secretion Assay (Example 2)) [nM]"
Cc1cccc(C(=O)NCC23CCC(C(=O)N[C@H](C(=O)N4CCCC4)c4ccccc4)(CC2)CC3)c1-c1ccc(C(C)(C)C)cc1 [Compound 65],5.2,4.5,–
Cc1cccc(C(=O)NCC23CCC(C(=O)N[C@H](C(=O)NCC4CC4)c4ccccc4)(CC2)CC3)c1-c1ccc(C(C)(C)C)cc1 [Compound 69],8.9,–,–
CC(C)(C)c1ccc(-c2ccccc2C(=O)Nc2nc(-c3ccc(C(=O)N[C@H](C(=O)NCC4CC4)c4ccccc4)cc3)cs2)cc1 [Compound 81],61.1,–,–
CC(C)CNC(=O)[C@@H](NC(=O)c1ccc(-c2csc(NC(=O)c3ccccc3-c3ccc(C(C)(C)C)cc3)n2)cc1)c1ccccc1 [Compound 82],197,–,–
Cc1cccc(C(=O)Nc2nc(-c3ccc(C(=O)N[C@H](C(=O)N(C)CC(C)C)c4ccccc4)cc3)cs2)c1-c1ccc(C(C)(C)C)cc1 [Compound 87],339,–,–
CCCN(C)C(=O)[C@@H](NC(=O)c1ccc(-c2csc(NC(=O)c3cccc(C)c3-c3ccc(C(C)(C)C)cc3)n2)cc1)c1ccccc1 [Compound 88],81.3,–,–
Cc1cccc(C(=O)Nc2nc(-c3ccc(C(=O)N[C@H](C(=O)N4CCCC4)c4ccccc4)cc3)cs2)c1-c1ccc(C(C)C)cc1 [Compound 89],8.8,–,–
CC(C)CN(C)C(=O)[C@@H](NC(=O)c1ccc(-c2csc(NC(=O)c3ccccc3-c3ccc(C(C)(C)C)cc3)n2)cc1)c1ccccc1 [Compound 91],422,–,–
CCCN(C)C(=O)[C@@H](NC(=O)c1ccc(-c2csc(NC(=O)c3ccccc3-c3ccc(C(C)(C)C)cc3)n2)cc1)c1ccccc1 [Compound 92],110,–,–
CC(C)N(C)C(=O)[C@@H](NC(=O)c1ccc(-c2csc(NC(=O)c3ccccc3-c3ccc(C(C)(C)C)cc3)n2)cc1)c1ccccc1 [Compound 93],89.7,–,–
CC(C)c1ccc(-c2ccccc2C(=O)Nc2nc(-c3ccc(C(=O)N[C@H](C(=O)N4CCCC4)c4ccccc4)cc3)cs2)cc1 [Compound 94],18.5,–,–
CCCN(C)C(=O)[C@@H](NC(=O)c1ccc(-c2csc(NC(=O)c3ccccc3-c3ccc(C(C)C)cc3)n2)cc1)c1ccccc1 [Compound 95],228,–,–
CCCN(C)C(=O)[C@@H](NC(=O)c1ccc(-c2csc(NC(=O)c3cccc(C)c3-c3ccc(C(C)C)cc3)n2)cc1)c1ccccc1 [Compound 97],143,–,–
Cc1cccc(C(=O)Nc2nc(-c3ccc(C(=O)N[C@H](C(=O)N(C)C(C)C)c4ccccc4)cc3)cs2)c1-c1ccc(C(C)C)cc1 [Compound 98],49.7,–,–
CC(C)c1ccc(-c2ccccc2C(=O)Nc2nc(-c3ccc(C(=O)N[C@H](C(=O)N(C)C(C)C)c4ccccc4)cc3)cs2)cc1 [Compound 99],121,–,–
CC(C)(C)c1csc(-c2ccccc2C(=O)NCC23CCC(C(=O)N[C@H](C(=O)N4CCCC4)c4ccccc4)(CC2)CC3)n1 [Compound 100],112,–,–
"CN(Cc1ccc(F)cc1)C(=O)[C@@H](NC(=O)c1ccc2nc(NC(=O)c3ccccc3-c3ccc(C(C)(C)C)cc3)ccc2c1)c1ccccc1 [compound 3, reference compound]",–,–,1.6
